# Assay results published in US10639284B2, “Immunomodulator compounds” (CHEMOCENTRYX, INC., priority 2016, dated 2020).
# pIC50: −log10 of the molar value.
# Molecular target: human PD-L1 / Human PD-1 (Homo sapiens (Human), UniProt Q9NZQ7)
# Assay: Enzyme-Linked Immunosorbent Assay (ELISA), PD-1/PD-L1 binding
# Details: Table 3; plate-coated human PD-L1, biotinylated human PD-1; read-out: ELISA IC50
# Summary of the method: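 Human PD-L1 coated at 1 μg/mL overnight at 4° C; samples diluted 1:5 and incubated with human PD-1 and biotin (0.3 μg/mL) for 1 h at 37° C. Bound PD-1 detected with streptavidin-HRP and TMB (20 min, 37° C), acid-stopped, absorbance at 450 nm.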
# Chain of human PD-L1 / Human PD-1 (Q9NZQ7 19-239): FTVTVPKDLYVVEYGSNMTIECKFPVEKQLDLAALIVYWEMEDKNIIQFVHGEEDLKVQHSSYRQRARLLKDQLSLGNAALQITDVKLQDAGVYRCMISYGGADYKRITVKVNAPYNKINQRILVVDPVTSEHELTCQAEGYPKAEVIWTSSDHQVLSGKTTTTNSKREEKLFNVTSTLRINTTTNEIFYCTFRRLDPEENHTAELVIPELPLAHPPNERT
row,SMILES,pIC50
1,O=C(O)c1cncc(COc2cc(O[C@H]3CCc4c(-c5ccc6c(c5F)OCCO6)cccc43)c(Cl)cc2CN[C@@H](CO)C(=O)O)c1 [Example 3.030],6.30 to 7.00
2,CCOC(=O)[C@](C)(CO)NCc1cc(Cl)c(O[C@H]2CCc3c(-c4ccc5c(c4F)OCCO5)cccc32)cc1OCc1cncc(C#N)c1 [Example 3.031],6.30 to 7.00
3,N#Cc1cncc(COc2cc(O[C@H]3CCc4c(-c5ccccc5F)cccc43)c(Cl)cc2CN[C@@H]2CCCC[C@@H]2O)c1 [Example 3.032],> 7.00
4,N#Cc1cncc(COc2cc(O[C@H]3CCc4c(-c5ccc6c(c5F)OCCO6)cccc43)c(Cl)cc2CN[C@@H]2CCC[C@H]2O)c1 [Example 3.033],> 7.00
5,N#Cc1cncc(COc2cc(O[C@H]3CCc4c(-c5ccc6c(c5F)OCCO6)cccc43)c(Cl)cc2CN[C@@H](CCO)C(=O)O)c1 [Example 3.034],> 7.00
6,COC(=O)[C@](C)(CO)NCc1cc(Cl)c(O[C@H]2CCc3c(-c4ccc5c(c4F)OCCO5)cccc32)cc1OCc1cncc(C#N)c1 [Example 3.035],6.30 to 7.00
7,N#Cc1cncc(COc2cc(O[C@H]3CCc4c(-c5ccc6c(c5F)OCCO6)cccc43)c(Cl)cc2CN[C@H]2CCCC[C@@H]2C(=O)O)c1 [Example 3.036],6.30 to 7.00
8,N#Cc1cncc(COc2cc(O[C@H]3CCc4c(-c5ccccc5F)cccc43)c(Cl)cc2CN[C@@H]2CCOC[C@H]2O)c1 [Example 3.037],> 7.00
9,N#Cc1cncc(COc2cc(O[C@H]3CCc4c(-c5ccccc5F)cccc43)c(Cl)cc2CN[C@@H]2COC[C@H]2O)c1 [Example 3.039],> 7.00
10,N#Cc1cncc(COc2cc(O[C@H]3CCc4c(-c5ccccc5F)cccc43)c(Cl)cc2CN[C@H]2CCC[C@H](O)C2)c1 [Example 3.040],> 7.00
11,N#Cc1cncc(COc2cc(O[C@H]3CCc4c(-c5ccc6c(c5F)OCCO6)cccc43)c(Cl)cc2CN[C@H]2CONC2=O)c1 [Example 3.042],4.70 to 6.30
12,N#Cc1cncc(COc2cc(O[C@H]3CCc4c(-c5ccccc5F)cccc43)c(Cl)cc2CN[C@@H](CO)C(=O)NCC(=O)NCC(=O)O)c1 [Example 3.043],> 7.00
13,N#Cc1cncc(COc2cc(O[C@H]3CCc4c(-c5ccccc5F)cccc43)c(Cl)cc2CN[C@@H](CO)C(=O)NCC(=O)O)c1 [Example 3.044],> 7.00
14,CC(C)OC(=O)[C@@H](NCc1cc(Cl)c(O[C@H]2CCc3c(-c4ccc5c(c4F)OCCO5)cccc32)cc1OCc1cncc(C#N)c1)[C@@H](C)O [Example 3.045],4.70 to 6.30
15,CC(C)OC(=O)[C@H](CO)NCc1cc(Cl)c(O[C@H]2CCc3c(-c4ccc5c(c4F)OCCO5)cccc32)cc1OCc1cncc(C#N)c1 [Example 3.046],4.70 to 6.30
16,C[C@H](NCc1cc(Cl)c(O[C@H]2CCc3c(-c4ccccc4F)cccc32)cc1OCc1cncc(C#N)c1)C(=O)N[C@@H](CO)C(=O)O [Example 3.047],> 7.00
17,N#Cc1cncc(COc2cc(O[C@H]3CCc4c(-c5ccccc5F)cccc43)c(Cl)cc2CN[C@@H](CO)C(=O)N[C@@H](CO)C(=O)N[C@@H](CO)C(=O)O)c1 [Example 3.048],> 7.00
18,C[C@H](NC(=O)[C@H](CO)NCc1cc(Cl)c(O[C@H]2CCc3c(-c4ccccc4F)cccc32)cc1OCc1cncc(C#N)c1)C(=O)O [Example 3.049],> 7.00
19,N#Cc1cncc(COc2cc(O[C@H]3CCc4c(-c5ccccc5F)cccc43)c(Cl)cc2CNCC(=O)N[C@@H](CO)C(=O)O)c1 [Example 3.050],6.30 to 7.00
20,N#Cc1cncc(COc2cc(O[C@H]3CCc4c(-c5ccccc5F)cccc43)c(Cl)cc2CNCCCN2CCS(=O)(=O)CC2)c1 [Example 3.051],6.30 to 7.00
21,CC(Cc1ccccn1)NCc1cc(Cl)c(O[C@H]2CCc3c(-c4ccccc4F)cccc32)cc1OCc1cncc(C#N)c1 (stereo partly shown) [Example 3.052],6.30 to 7.00
22,C[C@@H](O)[C@H](NCc1cc(Cl)c(O[C@H]2CCc3c(-c4ccc5c(c4F)OCCO5)cccc32)cc1OCc1cncc(C#N)c1)C(=O)O [Example 3.053],> 7.00
23,N#Cc1cncc(COc2cc(O[C@H]3CCc4c(-c5ccc6c(c5F)OCCO6)cccc43)c(Cl)cc2CN[C@H](CO)C(=O)O)c1 [Example 3.054],> 7.00
24,Cc1cc(C#N)cc(COc2cc(O[C@H]3CCc4c(-c5ccccc5F)cccc43)c(Cl)cc2CN[C@@H](CO)C(=O)O)c1 [Example 3.055],6.30 to 7.00
25,N#Cc1cncc(COc2cc(O[C@H]3CCc4c(-c5ccccc5F)cccc43)c(Cl)cc2CN[C@@H](Cc2c[nH]cn2)C(=O)NCC(=O)NCC(=O)O)c1 [Example 3.056],4.70 to 6.30
26,N#Cc1cncc(COc2cc(O[C@H]3CCc4c(-c5ccc6c(c5F)OCCO6)cccc43)c(Cl)cc2CNC(CO)(CO)CO)c1 [Example 3.057],> 7.00
27,C[C@H](NCc1cc(Cl)c(O[C@H]2CCc3c(-c4ccccc4F)cccc32)cc1OCc1cncc(C#N)c1)C(=O)NCC(=O)O [Example 3.058],6.30 to 7.00
28,N#Cc1cncc(COc2cc(O[C@H]3CCc4c(-c5ccccc5F)cccc43)c(Cl)cc2CNCc2c[nH]cn2)c1 [Example 3.059],> 7.00
29,C[C@H](NC(=O)[C@H](C)NCc1cc(Cl)c(O[C@H]2CCc3c(-c4ccccc4F)cccc32)cc1OCc1cncc(C#N)c1)C(=O)O [Example 3.060],> 7.00
30,N#Cc1cncc(COc2cc(O[C@H]3CCc4c(-c5ccccc5F)cccc43)c(Cl)cc2CNCC(=O)NCC(=O)O)c1 [Example 3.062],> 7.00

# The remaining lines, values ahead:
row,pIC50,SMILES
1,> 7.00,N#Cc1cc(Br)cc(COc2cc(O[C@H]3CCc4c(-c5ccccc5F)cccc43)c(Cl)cc2CN[C@@H](CO)C(=O)O)c1 [Example 3.063]
2,4.70 to 6.30,C[C@@H](O)[C@@H](CC(=O)O)NCc1cc(Cl)c(O[C@@H]2CCc3c(-c4ccccc4F)cccc32)cc1OCc1cncc(C#N)c1 [Example 3.064]
3,4.70 to 6.30,N#Cc1cncc(COc2cc(O[C@H]3CCc4c(-c5ccccc5F)cccc43)c(Cl)cc2CNC2CC(=O)NC(=O)C2)c1 [Example 3.065]
4,6.30 to 7.00,CC(NCc1cc(Cl)c(O[C@H]2CCc3c(-c4ccccc4F)cccc32)cc1OCc1cncc(C#N)c1)c1ccn(C)n1 (stereo partly shown) [Example 3.066]
5,> 7.00,N#Cc1cncc(COc2cc(O[C@H]3CCc4c(-c5ccccc5F)cccc43)c(Cl)cc2CN[C@H]2CC[C@H](O)CC2)c1 [Example 3.068]
6,> 7.00,N#Cc1cncc(COc2cc(O[C@@H]3CCc4c(-c5ccccc5F)cccc43)c(Cl)cc2CN[C@H](CO)C(=O)O)c1 [Example 3.069]
7,> 7.00,N#Cc1cncc(COc2cc(OC3CCc4c(-c5ccccc5F)cccc43)c(F)cc2CN[C@@H](CO)C(=O)O)c1 (stereo partly shown) [Example 3.070]
8,> 7.00,N#Cc1cncc(COc2cc(O[C@H]3CCc4c(-c5ccccc5F)cccc43)c(Cl)cc2CN[C@@H]2CCCC[C@H]2O)c1 [Example 3.071]
9,> 7.00,N#Cc1cncc(COc2cc(O[C@H]3CCc4c(-c5ccccc5F)cccc43)c(Cl)cc2CNC2CCOCC2)c1 [Example 3.072]
10,4.70 to 6.30,N#Cc1cncc(COc2cc(O[C@H]3CCc4c(-c5ccccc5F)cccc43)c(Cl)cc2CN2C[C@H](O)[C@@H](O)[C@H](O)[C@H]2CO)c1 [Example 3.073]
11,> 7.00,CCN(CC)CCCC(C)NCc1cc(Cl)c(O[C@H]2CCc3c(-c4ccccc4F)cccc32)cc1OCc1cncc(C#N)c1 (stereo partly shown) [Example 3.074]
12,6.30 to 7.00,Cn1ccnc1CNCc1cc(Cl)c(O[C@H]2CCc3c(-c4ccccc4F)cccc32)cc1OCc1cncc(C#N)c1 [Example 3.075]
13,6.30 to 7.00,CC(NCc1cc(Cl)c(O[C@H]2CCc3c(-c4ccccc4F)cccc32)cc1OCc1cncc(C#N)c1)C(=O)c1ccc(O)c(O)c1 (stereo partly shown) [Example 3.076]
14,6.30 to 7.00,N#Cc1cncc(COc2cc(O[C@H]3CCc4c(-c5ccccc5F)cccc43)c(Cl)cc2CNCCN2CCCCC2CO)c1 (stereo partly shown) [Example 3.077]
15,4.70 to 6.30,COC(=O)Cc1ccccc1-c1cccc2c1CC[C@@H]2Oc1cc(OCc2cncc(C#N)c2)c(CN[C@@H](CO)C(=O)O)cc1Cl [Example 3.078]
16,6.30 to 7.00,N#Cc1cncc(COc2cc(O[C@H]3CCc4c(-c5ccccc5O)cccc43)c(Cl)cc2CN[C@@H](CO)C(=O)O)c1 [Example 3.079]
17,> 7.00,CN(C)CCCCCNCc1cc(Cl)c(O[C@H]2CCc3c(-c4ccccc4F)cccc32)cc1OCc1cncc(C#N)c1 [Example 3.080]
18,4.70 to 6.30,N#Cc1cncc(COc2cc(O[C@H]3CCc4c(-c5ccccc5F)cccc43)c(Cl)cc2CNCc2ncc(-c3ccccc3)[nH]2)c1 [Example 3.081]
19,6.30 to 7.00,Cc1n[nH]c(C)c1CNCc1cc(Cl)c(O[C@H]2CCc3c(-c4ccccc4F)cccc32)cc1OCc1cncc(C#N)c1 [Example 3.082]
20,> 7.00,N#Cc1cncc(COc2cc(O[C@H]3CCc4c(-c5ccccc5F)cccc43)c(Cl)cc2CN[C@H](CNC(=N)N)C(=O)O)c1 [Example 3.083]
21,> 7.00,N#Cc1cncc(COc2cc(O[C@H]3CCc4c(-c5ccccc5F)cccc43)c(Cl)cc2CNCc2cccnn2)c1 [Example 3.084]
22,4.70 to 6.30,CCc1cc(CNCc2cc(Cl)c(O[C@H]3CCc4c(-c5ccccc5F)cccc43)cc2OCc2cncc(C#N)c2)on1 [Example 3.085]
23,> 7.00,C[C@H](NCc1cc(Cl)c(O[C@H]2CCc3c(-c4ccccc4F)cccc32)cc1OCc1cncc(C#N)c1)C(=O)N[C@@H](C)P(=O)(O)O [Example 3.086]
24,4.70 to 6.30,Cc1cc2cc(CNCc3cc(Cl)c(O[C@H]4CCc5c(-c6ccccc6F)cccc54)cc3OCc3cncc(C#N)c3)ccc2[nH]1 [Example 3.087]
25,6.30 to 7.00,N#Cc1cncc(COc2cc(O[C@H]3CCc4c(-c5ccccc5F)cccc43)c(Cl)cc2CNCCCCN(CCO)CCO)c1 [Example 3.088]
26,6.30 to 7.00,N#Cc1cncc(COc2cc(O[C@H]3CCc4c(-c5ccccc5F)cccc43)c(Cl)cc2CNCCCN2CCN(CCO)CC2)c1 [Example 3.089]
27,6.30 to 7.00,CC(C)c1nccn1CCCNCc1cc(Cl)c(O[C@H]2CCc3c(-c4ccccc4F)cccc32)cc1OCc1cncc(C#N)c1 [Example 3.090]
28,> 7.00,Cn1cnc(CNCc2cc(Cl)c(O[C@H]3CCc4c(-c5ccccc5F)cccc43)cc2OCc2cncc(C#N)c2)c1 [Example 3.091]
